Patent publication US12662485B2, “Substituted pyrazolo[4,3-D]pyrimidines as gut-targeted phosphodiesterase inhibitors” (priority 2020, dated 2026)
Blank lines part the entries; values can stand above or below the molecule they belong to.

Legend:
[1] = mouse, in vivo
colon epithelium = test: Epithelial proliferation in the colon by flow cytometry using Ki67; type: in vivo; settings: mice, drug in drinking water 8 days; control 21%
Experimental: Toxicity studies and histology. […] The body weight was measured daily. After 8 days the animals were sacrificed and the epithelial proliferation in the colon was measured by flow cytometry using Ki67. Box plots show median and whiskers are min and max values. The p values were generated using a one-way ANOVA with Dunnett's multiple comparisons test. For FIGS. 5A and 5C, n=5.

PDE5 = molecular target: T1, PDE5 (Homo sapiens, UniProt O76074); test: Reporter cell assay: LS-174T cells expressing PKG2 and PDE5, low-dose linaclotide, phospho-VASP Western blot; type: cell-based; settings: LS-174T reporter cells
T1 construct: host or cells: LS-174T colon cancer reporter cell line
Excerpt: Results shown are representative of at least 3 independent experiments.
Western blot and reporter cell lines. […] Results shown are representative of at least 3 independent experiments.

entry from the gut into plasma, dose curve [1]: increased dramatically in the plasma
Molecule: CCCc1nn(C)c2c(=O)[nH]c(-c3cc(S(=O)(=O)N4CCNCC4)ccc3OCC)nc12 [desmethyl-sildenafil, reference compound]

Molecule: CCCc1nn(C)c2c(=O)[nH]c(-c3cc(S(=O)(=O)N4CCN(C)CC4)ccc3OCC)nc12 [sildenafil, reference compound]
total Ki67 positive cells in colon epithelium (colon epithelium): 15%

potency of PDE5 inhibitor activity relative to sildenafil (VASP phosphorylation) (PDE5): equally potent as the parent compound
Molecule: acetyl-sildenafil
